Experimental data taken from patent publication US12427142B2, “Combination comprising alpelisib and 6-(2,4-dichlorophenyl)-5-[4-[(3S)-1-(3-fluoropropyl)pyrrolidin-3-yl[oxyphenyl]-8,9-dihydro-7H-benzo[7]annulene-2-carboxylic acid” (Sanofi, priority 2020, dated 2025).
Where two headings read alike, the source gives them in different places.

Columns and labels:
[1] = system: MCF7-Y537S human breast cancer cell line xenograft; details: experiment 1, compound (1) 20 mg/kg BID, alpelisib 25 mg/kg QD; for Tumor volume changes from baseline, Median: PO; for Median % of regressions on day 22 / ΔT/ΔC in % at day 22 / Regressions Complete / Regressions Partial: PO days 0 to 22; for Regressions Complete / Regressions Partial: animals/group; for Anti-tumor effect on tumor growth (in words) / Biological Interpretation: day 22
Protocol: In the present study, the anti-tumor efficacy of 6-(2,4-dichlorophenyl)-5-[4-[(3S)-1-(3-fluoropropyl)pyrrolidin-3-yl]oxyphenyl]-8,9-dihydro-7H-benzo[7]annulene-2-carboxylic acid (“compound (1)”), combined with alpha-specific phosphoinositide 3-kinase (PI3K) inhibitor alpelisib, was investigated after 22 day treatment against a subcutaneous MCF7-Y537S human breast cancer cell line xenograft in female nude mice.
The treated groups included compound (1) at 20 mg/kg alone, alpelisib at 25 mg/kg alone, and the combination of compound (1) and alpelisib at the same dose and regime.
Compound (1) was orally dosed twice a day (BID) and alpelisib was orally dosed once a day (QD) for 22 days. Anti-tumor efficacy was evaluated by tumor volume measurement.
Female BALB/c nude mice were obtained from Shanghai Sino-British SIPPR/BK Laboratory Animal Co., LTD (Shanghai, CHINA). Animals were allowed to acclimate for at least four days before the study enrollment. Mice were 6 to 8 weeks old and weighed between 18 and 24 grams at the beginning of the treatments. These animals were housed under conditions outlined in the guidelines approved by the Institutional Animal Care and Use Committee (IACUC) of WuXi AppTec following the guidance of the Association for Assessment and Accreditation of Laboratory Animal Care (AAALAC).
Parental MCF7 cells were obtained from the American Type Culture Collection (ATCC® HTB-22™). MCF7-Y537S (ESR1) cell line was MCF7 cells expressing the ER.Y537S variant that was generated by Sanofi Biology Discovery Group. Y537S mutation was introduced in ESR1 construct (GenBank NM_000125.3) by site directed mutagenesis (Toy W. et al., Cancer Discovery, 2017, 7, 277-287). The construct was transfected in MCF7 cells which were selected for their growth in absence of estradiol. MCF-Y537S is an ESR1 mutation that confers estrogen-independent activity to ERα (Estrogen Receptor alpha) and contributes to endocrine resistant disease (Robinson D. R. et al., Nat Genet., 2013, 45 (12), 1446-1451). The cells were grown in Eagle's Minimum Essential Medium (EMEM) supplemented with 10% fetal bovine serum (FBS), human Insulin, in 5% CO2 at 37° C. The cells were harvested in 0.25% Trypsin EDTA and washed by Phosphate Buffered Saline (PBS) and re-suspended in PBS with 75% Matrigel. The cells (20×10^6 cells/per mouse) were subcutaneously (SC) implanted into the right flank of female nude mice.
When the MCF7-Y537S tumors were established, the tumors were reserved as tumor stocks for fragment implantation. The tumors were serially propagated through fragment tissue transplantation subcutaneously. The fragment tumor tissues were subcutaneously implanted into the right flank of female nude mice. 28 mice were assigned in this experiment.
Alpelisib (commercially available, marketed under the tradename PIQRAY®) was formulated in 100% of HPMC (hydroxypropyl-methylcellulose)/TWEEN80 0.5/0.1% in water. Compound (1) was prepared in 5% Solutol HS15 (purchased from Sigma) at pH 3.0.
Dose volume for compound (1) and alpelisib for oral administration: 10 ml/kg by oral gavage.
Doses: compound (1) at 20 mg/kg and alpelisib at 25 mg/kg in the above volume.
The animals required for experiment (plus extra) were pooled and implanted with MCF7-Y537S tumor fragment tissues. […] Treatments of compound (1) and alpelisib were initiated on day 0. Compound (1) was orally administered at 20 mg/kg BID (8 hours apart) and alpelisib was orally administered at 25 mg/kg QD, for 22 days. Animal body weight was assessed daily.
The dosages are expressed in mg/kg and based on daily body weight per animal. Vehicle treated animals were used as controls. Mice were checked daily for adverse clinical reactions. Individual mice were weighed daily until the end of the experiment.

[2] = system: MCF7-Y537S human breast cancer cell line xenograft; type: in vivo; details: experiment 2, compound (1) 10 mg/kg BID, alpelisib 25 mg/kg QD; for Tumor volume changes from baseline, Median: PO; for Median % of regressions on day 28 / ΔT/ΔC in % at day 28 / Regressions Complete / Regressions Partial: PO days 0 to 28; for Regressions Complete / Regressions Partial: animals/group; for Anti-tumor effect on tumor growth (in words) / Biological Interpretation: day 28

| Structure (SMILES) | Tumor volume changes from baseline, Median ([1]; Day 4) [mm^3] | Tumor volume changes from baseline, Median ([1]; Day 8) [mm^3] | Tumor volume changes from baseline, Median ([1]; Day 11) [mm^3] | Tumor volume changes from baseline, Median ([1]; Day 15) [mm^3] | Tumor volume changes from baseline, Median ([1]; Day 18) [mm^3] | Tumor volume changes from baseline, Median ([1]; Day 22) [mm^3] | Median % of regressions on day 22 [1] [%] | ΔT/ΔC in % at day 22 [1] [%] | Regressions Complete [1] | Regressions Partial [1] | Anti-tumor effect on tumor growth (in words) [1] | Biological Interpretation [1] | Tumor volume changes from baseline, Median ([2]; Day 3) [mm^3] | Tumor volume changes from baseline, Median ([2]; Day 7) [mm^3] | Tumor volume changes from baseline, Median ([2]; Day 10) [mm^3] | Tumor volume changes from baseline, Median ([2]; Day 14) [mm^3] | Tumor volume changes from baseline, Median ([2]; Day 17) [mm^3] | Tumor volume changes from baseline, Median ([2]; Day 21) [mm^3] | Tumor volume changes from baseline, Median ([2]; Day 24) [mm^3] | Tumor volume changes from baseline, Median ([2]; Day 28) [mm^3] | other results |
| --- | --- | --- | --- | --- | --- | --- | --- | --- | --- | --- | --- | --- | --- | --- | --- | --- | --- | --- | --- | --- | --- |
| O=C(O)c1ccc2c(c1)CCCC(c1ccc(Cl)cc1Cl)=C2c1ccc(O[C@H]2CCN(CCCF)C2)cc1 [Compound (1), 6-(2,4-dichlorophenyl)-5-[4-[(3S)-1-(3-fluoropropyl)pyrrolidin-3-yl]oxyphenyl]-8,9-dihydro-7H-benzo[7]annulene-2-carboxylic acid] | 43.0 | 121.0 | 214.0 | 360.0 | 392.0 | 501.0 | 0 | 47 | 0/7 | 0/7 | no statistically significant anti-tumor effect | Inactive | 9.0 | 36.0 | 48.0 | 62.5 | 92.0 | 167.5 | 189.5 | 166.5 | Unscheduled death (Day of death) ([1]; PO for 22 days, deaths/animals): 0/7; Median % of regressions on day 28 [2]: 0%; ΔT/ΔC in % at day 28 [2]: 37%; Regressions Complete [2]: 0/8; Regressions Partial [2]: 0/8; Unscheduled death (Day of death) ([2]; PO for 28 days, deaths/animals): 0/8; Anti-tumor effect on tumor growth (in words) [2]: statistically significant anti-tumor effect; Biological Interpretation [2]: active |
| Cc1nc(NC(=O)N2CCC[C@H]2C(N)=O)sc1-c1ccnc(C(C)(C)C(F)(F)F)c1 [Alpelisib] | 68.0 | 102.0 | 163.0 | 262.0 | 315.0 | 491.0 | 0 | 46 | 0/7 | 0/7 | did not induce statistically significant anti-tumor efficacy | Inactive | 7.0 | −9.0 | −17.0 | 44.0 | 121.5 | 211.0 | 245.5 | 299.5 | Body weight loss ([2]; 28 days): no significant body weight loss; Tolerability ([2]; 28 days): well tolerated; Median % of regressions on day 28 [2]: 0%; ΔT/ΔC in % at day 28 [2]: 66%; Regressions Complete [2]: 0/8; Regressions Partial [2]: 0/8; Anti-tumor effect on tumor growth (in words) [2]: statistically significant anti-tumor efficacy; Biological Interpretation [2]: inactive |
